Experimental data published in patent publication US4110626A, “Method for improving the quality of the fragrance of perfumes using aliphatic dibasic acid diesters” (Shiseido Co., Ltd., priority 1976, dated 1978).
Where a name gives a salt, the structure may show the parent alone.

What was measured:
[1] = Acute oral toxicity (LD50); details: for LD50: acute oral toxicity
[2] = system: Pseudomonas aeruginosa; test: Microorganism assimilation; details: for OD (turbidity): 660 nm; for Assimilation by microorganism: conclusion from Table 8
Description: 100 ml of the above liquid medium was placed in a 500 ml Sakaguchi flask, and sterilized at 120° C for 15 minutes in an autoclave in a customary manner. After cooling, the culture medium was inoculated with a prescribed amount of a suspension of the pre-cultured microorganism and cultivated at 30° C with shaking 120 times per minute.
Changes with time in the pH, turbidity, number of living cells were determined.
The turbidity was determined as follows: 2 ml of the culture broth was collected, and the precipitate was separated with a centrifugal separator. The precipitate was washed with acetone, and suspended in 2 ml of distilled water. The turbidity (OD) of the suspension at 660 nm was measured.

[3] = system: skin of an albino rabbit; test: Primary irritation of the skin of an albino rabbit; type: in vivo; details: 0.3 ml, intact and abraded area, 24 hours
Description: The primary irritation of the skin of an albino rabbit was determined by adhering 0.3 ml of a test agent on a lint cloth patch, applying the cloth to an intact area and an abraded area of the skin of the back of the albino rabbit, and evaluating the skin reactions at these two areas after a lapse of 24 hours. Then, an overall evaluation was made.

[4] = system: skin of a guinea pig; test: Cumulative irritation on the skin of a guinea pig; type: in vivo; details: 0.3 ml three times at 24 hour intervals, intact skin
Description: The cumulative irritation on the skin of a guinea pig was evaluated by coating 0.3 ml of a test agent on intact skin of the guinea pig and judging the skin reaction after a lapse of 24 hours, then coating the test agent in an amount of 0.3 ml on the same site twice, each at 24 hour intervals, and judging the reaction of the skin after a lapse of 72 hours (after coating three times).

[5] = Stabilizing effect on octanal (APHA color); type: physicochemical; details: 37° C, 1 month; original APHA 15; 50% controlling agent added or octanal alone
Description: Octanal was selected as a single perfume, and the stabilizing effect of the perfume controlling agent was determined.
Amount of Perfume Controlling Agent: 50% based on the octanal (in the case of both DIBA and DIAA)
Test Temperature and Period: 37° C, one month (checked every week)
Items Evaluated: Acid value (AV), carbonyl value (COV), APHA color
In the test, a 100 ml brown bottle boiled in water for 12 hours was used, and the head space of the bottle was purged with nitrogen gas after the octanal had been introduced into the bottle.
Specifically, the color of a solution obtained by diluting 1 ml of a standard original color liquid (octanal) with water exactly to a volume of 100 ml is taken as APHA No. 5, and the APHA color number is increased by a multiple of 5 (as 10, 15, 20 . . . ) for every 1 ml increase of the original liquid.

[6] = Fixing effect: HS-GC (II), analysis of volatilized portion after standing 15 minutes; type: physicochemical; details: controlling agent 15%, model perfume 5%
Description: (§1) Then, the fixing effect was evaluated by a second head space gas chromatographic (II) method (HS-GC (II)). Specifically, a perfume containing 0.7 g of a perfume controlling agent was coated on a sheet of paper having a predetermined thickness, area (11.5 × 7.5 cm), and weight (about 2.9 g). The coated paper was allowed to stand for 15 minutes in an open space in a room (6 × 4 × 2.5 m) maintained at a humidity of 50% at a ventilation rate of 1,500 m^3 /hr. The paper was then transferred into a 1,000 ml Erlenmeyer flask, and the flask was tightly sealed. After a lapse of 15 minutes, the volatilized portion was collected and analyzed by gas chromatography under the conditions shown Table A above. Furthermore, the residue on the paper was extracted with acetone, and analyzed by gas chromatography using conditions shown in Table B below.
(§2) The composition of the model perfume used was as follows:
Model Perfume: 5% by weight
95% Ethanol: 95% by weight
The composition of the perfume containing a perfume controlling agent was as follows:
Perfume Controlling Agent: 15% by weight
95% Ethanol: 80% by weight

[7] = Fixing effect: analysis of residue on paper after standing 15 minutes; type: physicochemical
Description: as §1
Column: 5% FFAP (free fatty acid polyester; a trade name for a product of Nippon Chromato Co., Ltd.) on diatomaceous earth (2m)
Column Temperature: 80° C (5 minutes, isothermal) to 220° C (4° C/min.)
Injector Temperature: 260° C
Detector Temperature: 260° C
Detector: Flame Ionization Detector
Carrier Gas: He (40 ml/min.)
as §2
The values shown in Table 5 above were obtained by calculating the areas of the perfumes while the area of musk ketone measured by gas chromatography was taken as 1. (This calculating procedure was adopted because musk ketone has a high boiling point, and scarcely volatilizes at 30° C.)

[8] = Linalyl Acetate (not present: 39.0%)
[9] = Musk ketone (not present: 0.0%)
[10] = Citral (not present: 1.5), area of musk ketone taken as 1
[11] = Limonene (not present: 0.3), area of musk ketone taken as 1
[12] = Linalool (not present: 6.4), area of musk ketone taken as 1
[13] = Linalyl Acetate (not present: 5.1), area of musk ketone taken as 1
[14] = Musk Ketone (reference, taken as 1; not present: 1.0)
[15] = Pinene (not present: 0.0), area of musk ketone taken as 1

Compound | LD50 [1] | pH ([2]; 0 days elapsed) | Number of Living Cells ([2]; 2 days elapsed) | pH ([2]; 2 days elapsed) | OD (turbidity) ([2]; 2 days elapsed) | Number of Living Cells ([2]; 7 days elapsed) | pH ([2]; 7 days elapsed) | OD (turbidity) ([2]; 7 days elapsed) | Number of Living Cells ([2]; 14 days elapsed) | pH ([2]; 14 days elapsed) | OD (turbidity) ([2]; 14 days elapsed) | Assimilation by microorganism [2] | Analysis of Volatilized Portion after Standing 15 Minutes (HS-GC (II) Method) ([6]; Citral (not present: 3.5%)) | Analysis of Volatilized Portion after Standing 15 Minutes (HS-GC (II) Method) ([6]; Limonene (not present: 2.6%)) | Analysis of Volatilized Portion after Standing 15 Minutes (HS-GC (II) Method) ([6]; Linalool (not present: 45.2%)) | Analysis of Volatilized Portion after Standing 15 Minutes (HS-GC (II) Method) [6, 8] | Analysis of Volatilized Portion after Standing 15 Minutes (HS-GC (II) Method) [6, 9] | Analysis of Volatilized Portion after Standing 15 Minutes (HS-GC (II) Method) ([6]; Pinene (not present: 0.2%)) | further results
CC(C)CCOC(=O)CCCCC(=O)OCCC(C)C (single isomer, unassigned) [DIAA, diisoamyl adipate] | > 25 mL/kg | 6.90 | 1.6 × 10^6 | 4.74 | 0.105 | < 10^2 | 4.40 | 0.05 | < 10^2 | 4.30 | 0.055 | assimilated very well |  |  |  |  |  |  | Acute toxicity compared with conventional perfume controlling agents ([1]; conclusion from Table 1): equal to, or lower than, other conventional perfume controlling agents; Primary irritation of the skin [3]: did not exhibit irritating effects; Cumulative irritation on the skin [4]: did not exhibit irritating effects; APHA color of octanal [5]: about 30 APHA
O=C(OCc1ccccc1)c1ccccc1 [Benzyl Benzoate, benzyl benzoate] |  |  |  |  |  |  |  |  |  |  |  |  | 1.6% | 31.3% | 37.7% | 20.6% | 0.0% | 1.3% | Analysis of Residue on Paper after Standing 15 Minutes (Area Ratio) [7, 10]: 1.8; Analysis of Residue on Paper after Standing 15 Minutes (Area Ratio) [7, 11]: 0.38; Analysis of Residue on Paper after Standing 15 Minutes (Area Ratio) [7, 12]: 8.1; Analysis of Residue on Paper after Standing 15 Minutes (Area Ratio) [7, 13]: 8; Analysis of Residue on Paper after Standing 15 Minutes (Area Ratio) [7, 14]: 1; Analysis of Residue on Paper after Standing 15 Minutes (Area Ratio) [7, 15]: 0
CCCCC(CC)COC(=O)CCCCC(=O)OCC(CC)CCCC (centres unmarked) [Di-2-ethylhexyl Adipate, di-2-ethylhexyl adipate] |  | 6.86 | 1.3 × 10^6 | 6.60 | 0.008 | 5.0 × 10^7 | 6.30 | 0.01 | 1.4 × 10^9 | 6.10 | 0.15 | gradually assimilated as time passed |  |  |  |  |  |  | 
CCOC(=O)c1ccccc1C(=O)OCC [Diethyl Phthalate, diethyl phthalate] |  | 6.86 | 2.5 × 10^6 | 6.86 | 0.001 | 4.2 × 10^4 | 6.86 | 0.001 | 5.2 × 10^5 | 6.86 | 0 | not assimilated | 1.2% | 31.3% | 40.5% | 18.4% | 0.0% | 0.9% | 
CC(C)OC(=O)CCCCC(=O)OC(C)C [Diisopropyl Adipate, diisopropyl adipate] |  | 6.90 | 4.0 × 10^5 | 6.90 | 0.005 | 1.9 × 10^7 | 5.32 | 0.26 | < 10^3 | 4.22 | 0.46 | assimilated very well |  |  |  |  |  |  | 
CCCCCCCCCCCCCC(=O)OC(C)C [Isopropyl Myristate] | > 25 mL/kg |  |  |  |  |  |  |  |  |  |  |  |  |  |  |  |  |  | 
CC(O)CO (centres unmarked) [Propylene Glycol] | 23.9 mL/kg |  |  |  |  |  |  |  |  |  |  |  |  |  |  |  |  |  | 
CCOC(=O)CC(O)(CC(=O)OCC)C(=O)OCC [Triethyl Citrate] | > 25 mL/kg |  |  |  |  |  |  |  |  |  |  |  |  |  |  |  |  |  | 
CCCCCCCC=O [octanal] |  |  |  |  |  |  |  |  |  |  |  |  |  |  |  |  |  |  | APHA color of octanal [5]: > 300 APHA
dipropylene glycol | 17.6 mL/kg | 6.84 | 3.1 × 10^6 | 6.84 | 0 | 7.2 × 10^7 | 6.82 | 0.005 | 4.7 × 10^6 | 6.82 | 0 | not assimilated | 3.7% | 2.7% | 42.8% | 40.0% | 0.0% | 0.2% | Analysis of Residue on Paper after Standing 15 Minutes (Area Ratio) [7, 10]: 1.1; Analysis of Residue on Paper after Standing 15 Minutes (Area Ratio) [7, 11]: 0; Analysis of Residue on Paper after Standing 15 Minutes (Area Ratio) [7, 12]: 4.9; Analysis of Residue on Paper after Standing 15 Minutes (Area Ratio) [7, 13]: 4.1; Analysis of Residue on Paper after Standing 15 Minutes (Area Ratio) [7, 14]: 1; Analysis of Residue on Paper after Standing 15 Minutes (Area Ratio) [7, 15]: 0
